Reference: publication PMC9582194, “The effect of helix-inducing constraints and downsizing upon a transcription block survival-derived functional cJun antagonist” (Cell Reports. Physical Science, 2022)
Several values for one entry are separate records, joined by “and”; a condition that tells them apart may be missing. Equal values may be shown once. Positions of bridges follow the written chain, without caps; N, C: chain ends. Residues, ends and D or L forms follow the SMILES beside them.

Experiments:
cJun/TRE DNA interaction = target: T1, cJun/TRE DNA interaction (Homo sapiens, UniProt P05412); assay: CD antagonism of the cJun/TRE DNA interaction; format: biochemical
T1 construct: The same 60 amino acid cJun construct, encompassing the entire bZIP domain, was used for all experiments
Procedure: The precise nature of the interaction between the cJun DBD and the rationally designed acidic domain of HW1 is unknown. HW1 was, therefore, iteratively truncated from the N terminus (HW2–6) to investigate the effect on cJun binding and cJun/TRE DNA antagonism (Table 1). Peptide fraction helicity (fH) was determined by quantifying the circular dichroism (CD) signal at 222 nm of peptide-only samples (Figure S1). Thermal denaturation experiments were then used to determine the melting temperature (Tm) of peptide-cJun heterodimers, which serves as an approximate measure of target engagement. CD was also used to investigate the functional activity of peptides in antagonizing the cJun/TRE DNA interaction. […] This provides a clear and direct measurement of the proportion of DNA bound to cJun. As antagonist peptide concentration was increased, the peak shifted to overlay with that of free TRE-DNA (Figure S4). […]
Figure 2 Iterative N-terminal truncation of HingeW reduces cJun binding and antagonism (A) Thermal denaturation profiles for iteratively truncated peptide (5 μM)/cJun (5 μM) heterodimer samples. (B) CD antagonism data produced by monitoring the shift in a DNA specific peak to provide a direct readout of cJun-DNA binding. […]

[1] = Peptide fraction helicity by CD at 222 nm, peptide-only samples; format: physicochemical; conditions: CD signal at 222 nm of peptide-only samples; pH 7.4 phosphate/KF/TCEP buffer; duplicate experiments
Procedure: (§1) The precise nature of the interaction between the cJun DBD and the rationally designed acidic domain of HW1 is unknown. HW1 was, therefore, iteratively truncated from the N terminus (HW2–6) to investigate the effect on cJun binding and cJun/TRE DNA antagonism (Table 1). Peptide fraction helicity (fH) was determined by quantifying the circular dichroism (CD) signal at 222 nm of peptide-only samples (Figure S1). Thermal denaturation experiments were then used to determine the melting temperature (Tm) of peptide-cJun heterodimers, which serves as an approximate measure of target engagement. CD was also used to investigate the functional activity of peptides in antagonizing the cJun/TRE DNA interaction. […] This provides a clear and direct measurement of the proportion of DNA bound to cJun. As antagonist peptide concentration was increased, the peak shifted to overlay with that of free TRE-DNA (Figure S4). For each peptide, the data were fit to a Hill equation to determine half-maximal inhibitory concentration (IC50) values, specific to these assay conditions, providing a clear comparative measure of antagonism. The same 60 amino acid cJun construct, encompassing the entire bZIP domain, was used for all experiments regardless of antagonist peptide length.

cJun [2] = target: T2, cJun (Homo sapiens, UniProt P05412); assay: CD thermal denaturation of peptide-cJun heterodimers (Tm); format: binding
T2 construct: The same 60 amino acid cJun construct, encompassing the entire bZIP domain, was used for all experiments
Procedure: as §1
Figure 2 Iterative N-terminal truncation of HingeW reduces cJun binding and antagonism (A) Thermal denaturation profiles for iteratively truncated peptide (5 μM)/cJun (5 μM) heterodimer samples. (B) CD antagonism data produced by monitoring the shift in a DNA specific peak to provide a direct readout of cJun-DNA binding. Peptides are added at the indicated concentrations to a pre-incubated mixture of cJun (20 μM) and TRE DNA (5 μM). Data points were averaged from triplicate experiments, and error bars indicate one SD. The data were fitted to a Hill equation to determine IC50 values. Some higher peptide concentration data points for HW6 and HW9 are not shown in this plot for clarity.

cJun [3] = target: T2, cJun; assay: Isothermal titration calorimetry (ITC) with cJun; format: binding; conditions: 25 °C, average of two experiments ± one SD
Text: A selection of peptides from this work were investigated by isothermal titration calorimetry (ITC) to quantify the thermodynamic parameters of their interaction with target cJun (Figure 4 and S6; Table 2). The determined equilibrium binding constant (KD) values follow from the CD data above and can be rationalized in terms of the truncation or lactamization they represent. […] All interactions investigated were dominated by the enthalpic component, with a smaller unfavorable entropic contribution, other than for HW8/cJun, which is the weakest interaction. The unfavorable entropic component was largest for the HW30/cJun interaction and smallest for HW23/cJun. This indicates the introduction of lactams produces a more unfavorable entropic component, perhaps a surprising result as helix-inducing lactamization is typically considered to increase affinity through entropic pre-organization. However, the larger increase in the favorable enthalpic component produces an increase in binding affinity due to lactamization. This is likely to be caused by a combination of enhanced intermolecular contacts and ordering that are opposed by unfavorable desolvation effects.
Two-μL injections of antagonist peptide at 25–200 μM were injected into the cell containing cJun at 2.5–20 μM at 25°C. Microcal Control and Analysis software were used to record and analyze the heat change upon addition and fit the data to a one-site binding model to extract the enthalpy change of binding (ΔH) and the KD, from which the free energy change of binding (ΔG) and the entropy change of binding (ΔS) were calculated.[40] Control experiments involved the injection of the antagonist peptide sample into the cell containing ITC buffer alone to determine the heat of dilution, which was subtracted. Thermodynamic parameters are presented as an average of two independent experiments with errors given as one SD.

Stability in human serum = conditions: human serum (Merck), 75 μL of 600 μM peptide stock added to 1425 μL serum, 37 °C, 3-day endpoint; acetonitrile:water precipitation; LC-MS, sum of two largest charge-state peaks; average of three repeats
TRE DNA = assay: CD of TRE DNA with antagonist peptide alone (Figure S3); format: binding; conditions: TRE DNA (5 μM) + HingeW (50 μM), CD 260-320 nm
Procedure: as §1, with “length. […]” for “length.”
wavelength range, so the CD signal observed occurs due to the DNA structure, which is not perturbed upon addition of HingeW. […]

[4] = target: T3, cJun (60 amino acid construct encompassing the entire bZIP domain) (UniProt P05412 252-315); assay: cell-based or functional assay
[5] = CD thermal denaturation; peptide alone (no cJun); thermal denaturation curves compared as a sign of homodimerization; conditions: other: CD thermal denaturation
[6] = target: T3, cJun (60 amino acid construct …); assay: CD thermal denaturation; peptide (5 μM) with cJun (5 μM); ellipticity at 222 nm, 1°C to 90°C; 20 mM potassium phosphate, 150 mM potassium fluoride, 2 mM TCEP, pH 7.4; two-state fit gives the Tm of the peptide-cJun heterodimer; duplicate experiments; conditions: both partners purified
[7] = target: cJun (60 amino acid construct encompassing the entire bZIP domain) (UniProt P05412)
[8] = peptide 25-200 μM injected into cJun 2.5-20 μM, pH 7.4, one-site model

T2 sequence (P05412 252-315 limits assumed): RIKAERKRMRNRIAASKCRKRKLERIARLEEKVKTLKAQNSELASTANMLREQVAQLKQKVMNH
T1 sequence (P05412 252-315 limits assumed): as above
T3 sequence (P05412 252-315): as the sequence (P05412 252-315 limits assumed) above
Chain of cJun (60 amino acid construct encompassing the entire bZIP domain) (UniProt P05412) (P05412 252-315): as the sequence (P05412 252-315 limits assumed) above

Ac-EAEELVVEEDVLEEEIEQLEEKNKALKDEIEDLY-NH2 [HW14]
IC50 (cJun/TRE DNA interaction; peptide added to pre-incubated cJun (20 μM) and TRE DNA (5 μM), shift of DNA CD peak at ~281 nm, 30 min equilibration, pH 7.4, Hill fit, triplicate experiments, ± one SD, read-out: IC50 CD (antagonism of cJun/TRE DNA binding)): 1560 µM
fH, peptide fraction helicity [1]: 30.1%

CC[C@H](C)[C@H](NC(=O)[C@H](CCC(=O)O)NC(=O)[C@H](CCCCN)NC(=O)[C@H](CCCNC(=N)N)NC(=O)[C@H](CC(C)C)NC(=O)[C@H](C)NC(=O)[C@H](Cc1ccc(O)cc1)NC(=O)[C@H](CC(N)=O)NC(=O)[C@H](CCCNC(=N)N)NC(=O)[C@H](CCC(=O)O)NC(=O)[C@H](CCC(=O)O)NC(=O)[C@H](CC(C)C)NC(=O)[C@H](CCC(N)=O)NC(=O)[C@H](CCC(=O)O)NC(=O)[C@@H](NC(=O)[C@H](CCC(=O)O)NC(=O)[C@H](CCC(=O)O)NC(=O)[C@H](CCC(=O)O)NC(=O)[C@H](CC(C)C)NC(=O)[C@@H](NC(=O)[C@H](CC(=O)O)NC(=O)[C@H](CCC(=O)O)NC(=O)[C@H](CCC(=O)O)NC(=O)[C@@H](NC(=O)[C@@H](NC(=O)[C@H](CC(C)C)NC(=O)[C@H](CCC(=O)O)NC(=O)[C@H](CCC(=O)O)NC(=O)[C@H](C)NC(=O)[C@H](CCC(=O)O)NC(C)=O)C(C)C)C(C)C)C(C)C)[C@@H](C)CC)C(=O)N[C@H]1CCCCNC(=O)C[C@@H](C(=O)N[C@@H](CCC(N)=O)C(N)=O)NC(=O)[C@H](CCC(N)=O)NC(=O)[C@H](CC(C)C)NC(=O)[C@H](CC(=O)O)NC1=O [HW29] (Ac-EAEELVVEEDVLEEEIEQLEERNYALRKEIKDLQDQ-NH2; lactam 31-35)
ΔTm of cJun heterodimer due to lactamization (cJun [2]; cyclized versus its linear (non-lactamized) counterpart): ~9 °C
ΔTm of cJun heterodimer relative to parent sequence HW8 (cJun [2]; versus HW8, before the substitutions for K and D residues): ~8 °C
Kd (cJun [3]; [8]): 0.0866 ± 0.017 µM
peptide remaining in human serum, peak intensity relative to starting value (Stability in human serum): 31%

Ac-EAEELVVEEDVLEEEIEQLEERNYALRKEIEDLQKQ-NH2 [HW8]
Tm of peptide-cJun heterodimer (cJun [2]; CD ellipticity at 222 nm, 1-90 °C, peptide (5 μM)/cJun (5 μM), 20 mM potassium phosphate, 150 mM potassium fluoride, 2 mM TCEP pH 7.4, two-state fit, duplicate experiments, ± one SD): 57.1 ± 0.9 °C
fH, peptide fraction helicity [1]: 37.3%
ΔH (cJun [3]; pH 7.4, one-site model): -5.989 ± 0.813 kcal/mol
Stoichiometry, n (cJun [3]; [8]): 0.95 ± 0.09
peptide remaining in human serum, peak intensity relative to starting value (Stability in human serum): fully degraded

MASLEQRAEELARENEELEKEAEELVVE-NH2 [HW7, acidic domain of HW1 alone (CΔ35)]
binding to cJun (in words) (cJun [2]; acidic domain alone): not to bind
antagonism of the ability of cJun to bind TRE DNA (in words) (cJun/TRE DNA interaction; CD antagonism assay): did not

MASLEQRAEELARENEELEKEAEELVVEEDVLEEEIEQLEERNYALRKEIEDLQKQLEKLGAPHHHHHH [HW1]
fH, peptide fraction helicity [1]: ~27% and 27.2%
ΔG (cJun [3]; pH 7.4, calculated from KD): -13.45 ± 0.179 kcal/mol
-TΔS (cJun [3]; pH 7.4, calculated from ΔH and KD): 17.55 ± 0.884 kcal/mol
interaction with TRE DNA (in words) (TRE DNA): does not interact
peptide remaining in human serum, peak intensity relative to starting value (Stability in human serum): fully degraded

CC[C@H](C)[C@H](NC(=O)[C@H](CCC(=O)O)NC(=O)[C@H](CCCCN)NC(=O)[C@H](CCCNC(=N)N)NC(=O)[C@H](CC(C)C)NC(=O)[C@H](C)NC(=O)[C@H](Cc1ccc(O)cc1)NC(=O)[C@H](CC(N)=O)NC(=O)[C@H](CCCNC(=N)N)NC(=O)[C@H](CCC(=O)O)NC(=O)[C@H](CCC(=O)O)NC(=O)[C@H](CC(C)C)NC(=O)[C@H](CCC(N)=O)NC(=O)[C@H](CCC(=O)O)NC(=O)[C@@H](NC(=O)[C@H](CCC(=O)O)NC(=O)[C@@H]1CC(=O)NCCCC[C@H](NC(=O)[C@H](CCC(=O)O)NC(=O)[C@H](CCC(=O)O)NC(=O)[C@@H](NC(=O)[C@@H](NC(=O)[C@H](CC(C)C)NC(=O)[C@H](CCC(=O)O)NC(=O)[C@H](CCC(=O)O)NC(=O)[C@H](C)NC(=O)[C@H](CCC(=O)O)NC(C)=O)C(C)C)C(C)C)C(=O)N[C@@H](C(C)C)C(=O)N[C@@H](CC(C)C)C(=O)N[C@@H](CCC(=O)O)C(=O)N1)[C@@H](C)CC)C(=O)N[C@H]1CCCCNC(=O)C[C@@H](C(=O)N[C@@H](CCC(N)=O)C(N)=O)NC(=O)[C@H](CCC(N)=O)NC(=O)[C@H](CC(C)C)NC(=O)[C@H](CC(=O)O)NC1=O [HW30] (Ac-EAEELVVEEKVLEDEIEQLEERNYALRKEIKDLQDQ-NH2; lactam 10-14, 31-35)
peptide remaining in human serum, peak intensity relative to starting value (Stability in human serum): 56%

B1: HW5 (peptide)
peptide: Ac-LVVEEDVLEEEIEQLEERNYALRKEIEDLQKQLEKL-NH2
notes: truncation NΔ24 CΔ3 of HW1; source: synthetic peptide (Fmoc SPPS, RP-HPLC purified)
IC50 CD: peptide added to pre-incubated cJun (20 μM) and TRE DNA (5 μM); blocks cJun/TRE DNA binding [4]: 78.2 µM
Tm of the peptide alone [5]: HW5 displayed a Tm of 41 °C
Tm of the peptide-cJun heterodimer [6]: 62.8 °C

Ac-EAEELVVEEDVLEEEIEQLEEKNKALKDEIEDLY-NH2 [HW14]
IC50 CD: peptide added to pre-incubated cJun (20 μM) and TRE DNA (5 μM); blocks cJun/TRE DNA binding [7]: 1560 µM
